This series is described as follows: Isoflurane remaining in uncapped vials, determined by weighing over time. It counts as physicochemical. The procedure:
In the Examples that follow, the stability of isoflurane in the described compositions was determined in two ways. First, the compositions were examined for the presence of phase separation at the macroscopic level. Secondly, isoflurane content of the compositions was determined by weighing the remaining isoflurane in the composition when they were left uncapped over time. Briefly, glass vials were filled with 5-10 ml of the composition vehicle and then weighed; one of them received only vehicle (i.e., no isoflurane) and served as control. The other vials received varying amounts of isoflurane. They were left uncapped in the hood. Over time, the vials were weighed to see if the isoflurane stayed in the composition or had evaporated. The amount evaporated over time in the vehicle control was subtracted from that in the isoflurane-containing composition.
The pure form of isoflurane is a volatile anesthetic. In order to assess the volatility of isoflurane, two vials received the indicated amounts of pure form isoflurane. The vials were placed in the chemical fume hood and left uncapped. The vials were weighed at the indicated times to determine the amount of evaporated isoflurane. As it is shown in the table below 0.7893 g isoflurane was evaporated within 3 hours, while 3.4825 g isoflurane took approximately 8 hrs to evaporate completely. These amounts of isoflurane are similar to the amounts of isoflurane that were used to prepare the isoflurane compositions in the Examples that follow.

Setting [1] is: pure form of isoflurane 0.7893 g, uncapped vial.
Setting [2] is: pure form of isoflurane 3.4825 g, uncapped vial.

Structures are written as SMILES. Some results are limits rather than exact numbers.

Turning to `FC(F)OC(Cl)C(F)(F)F` (stereo not drawn) [isoflurane], the “time for isoflurane to evaporate” value (0.7893 g pure isoflurane, uncapped vial in fume hood) was ≤ 3 h. Moreover, the “time for isoflurane to evaporate completely” value (3.4825 g pure isoflurane, uncapped vial in fume hood) is given as “approximately 8 hrs”. In addition, the “0 h (% remaining iso)” value (pure form of isoflurane 0.7893 g, uncapped vial in fume hood) worked out at 100%. For the same compound, under setting [1], the “0.25 h (% remaining iso)” value is on record as 85%, the “1 h (% remaining iso)” value is 52%, the “2 h (% remaining iso)” value is given as 14% and the “3 h (% remaining iso)” value was found to be 0%. For the same compound, under “pure form of isoflurane 3.4825 g, uncapped vial in fume hood”, the “0 h (% remaining iso)” value turned out to be 100%. In addition, under setting [2], the “0.25 h (% remaining iso)” value is reported as 96%, the “1 h (% remaining iso)” value was determined as 86%, the “2 h (% remaining iso)” value came to 75% and the “3 h (% remaining iso)” value was 62%. Also, the “5 h (% remaining iso)” value (pure form of isoflurane 3.4825 g, uncapped vial, 5 h) came out at 38%. Also, where the note is “pure form of isoflurane 3.4825 g, uncapped vial, 7 h”, the 7 h was 13%. For the same compound, the 8 h (pure form of isoflurane 3.4825 g, uncapped vial, 8 h) is 3%.

Values taken from US10933009B2, “Formulations and methods for treating dermatological disorders and diseases” (VAPOGENIX, INC., priority 2011, dated 2021).
